PubChem BioAssay AID1963871 (Molecular Pharmacology Branch, DTP, NCI, 2024)

Test system: KRAS-mutant PDC multicell tumor spheroid viability
Test: Anticancer human tumor 521955-158-R2-J5-PDC patient-derived pancreatic carcinoma cell line growth inhibition [KRAS2]
Conditions: for IC50: curve of first compound; for viability, T/C: stronger effect = lower value
In short: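 KRAS-mutant tumor cells were grown as spheroids with HUVEC endothelial cells and human MSCs as stroma. Targeted agents were tested alone and with KRAS pathway inhibitors. Doses started at or near clinical Cmax, or 10 microM, descending half-log.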

[1] = second compound 0.1 µM, first compound 0.000316 µM
[2] = second compound 0.1 µM, first compound 0.001 µM
[3] = second compound 0.1 µM, first compound 0.00316 µM
[4] = second compound 0.1 µM, first compound 0.01 µM
[5] = second compound 0.1 µM, first compound 0.0316 µM
[6] = second compound 0.316 µM, first compound 0.000316 µM
[7] = second compound 0.316 µM, first compound 0.001 µM
[8] = second compound 0.316 µM, first compound 0.00316 µM
[9] = second compound 0.316 µM, first compound 0.01 µM
[10] = second compound 0.316 µM, first compound 0.0316 µM
[11] = second compound 1 µM, first compound 0.000316 µM
[12] = second compound 1 µM, first compound 0.001 µM
[13] = second compound 1 µM, first compound 0.00316 µM
[14] = second compound 1 µM, first compound 0.01 µM
[15] = second compound 1 µM, first compound 0.0316 µM
[16] = second compound 3.16 µM, first compound 0.000316 µM
[17] = second compound 3.16 µM, first compound 0.001 µM
[18] = second compound 3.16 µM, first compound 0.00316 µM
[19] = second compound 3.16 µM, first compound 0.01 µM
[20] = second compound 3.16 µM, first compound 0.0316 µM
[21] = second compound 10 µM, first compound 0.000316 µM
[22] = second compound 10 µM, first compound 0.001 µM
[23] = second compound 10 µM, first compound 0.00316 µM
[24] = second compound 10 µM, first compound 0.01 µM
[25] = second compound 10 µM, first compound 0.0316 µM
[26] = second compound 0.1 µM, first compound 0.1 µM
[27] = second compound 0.316 µM, first compound 0.1 µM
[28] = second compound 1 µM, first compound 0.1 µM
[29] = second compound 3.16 µM, first compound 0.1 µM
[30] = second compound 10 µM, first compound 0.1 µM
[31] = second compound 0.1 µM, first compound 0.316 µM
[32] = second compound 0.1 µM, first compound 1 µM
[33] = second compound 0.1 µM, first compound 3.16 µM
[34] = second compound 0.1 µM, first compound 10 µM
[35] = second compound 0.316 µM, first compound 0.316 µM
[36] = second compound 0.316 µM, first compound 1 µM
[37] = second compound 0.316 µM, first compound 3.16 µM
[38] = second compound 0.316 µM, first compound 10 µM
[39] = second compound 1 µM, first compound 0.316 µM
[40] = second compound 1 µM, first compound 1 µM
[41] = second compound 1 µM, first compound 3.16 µM
[42] = second compound 1 µM, first compound 10 µM
[43] = second compound 3.16 µM, first compound 0.316 µM
[44] = second compound 3.16 µM, first compound 1 µM
[45] = second compound 3.16 µM, first compound 3.16 µM
[46] = second compound 3.16 µM, first compound 10 µM
[47] = second compound 10 µM, first compound 0.316 µM
[48] = second compound 10 µM, first compound 1 µM
[49] = second compound 10 µM, first compound 3.16 µM
[50] = second compound 10 µM, first compound 10 µM
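Further: viability read after seven days of drug exposure.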

CC(=O)Nc1cccc(-n2c(=O)n(C3CC3)c(=O)c3c(Nc4ccc(I)cc4F)n(C)c(=O)c(C)c32)c1 + COc1cc2nc(C)nc(NC(C)c3cc(N)cc(C(F)(F)F)c3)c2cc1OC1CCOC1
IC50 (second compound 0.1 µM): 0.26 nM
IC50 (second compound 0.316 µM): 0.209 nM
IC50 (second compound 1 µM): 0.215 nM
IC50 (second compound 3.16 µM): 0.26 nM
IC50 (second compound 10 µM): < 0.1 nM
viability, T/C (second compound 0.1 µM, first compound 0.0001 µM): 68.5%
viability, T/C [1]: 48%
viability, T/C [2]: 26.1%
viability, T/C [3]: 26.2%
viability, T/C [4]: 16.3%
viability, T/C [5]: 12.7%
viability, T/C (second compound 0.316 µM, first compound 0.0001 µM): 58.5%
viability, T/C [6]: 46.4%
viability, T/C [7]: 30.6%
viability, T/C [8]: 24.8%
viability, T/C [9]: 16.7%
viability, T/C [10]: 8.98%
viability, T/C (second compound 1 µM, first compound 0.0001 µM): 65.2%
viability, T/C [11]: 39.3%
viability, T/C [12]: 31.4%
viability, T/C [13]: 19.9%
viability, T/C [14]: 18.1%
viability, T/C [15]: 7.44%
viability, T/C (second compound 3.16 µM, first compound 0.0001 µM): 63.6%
viability, T/C [16]: 46.9%
viability, T/C [17]: 33.5%
viability, T/C [18]: 21.8%
viability, T/C [19]: 16.8%
viability, T/C [20]: 5.44%
viability, T/C (second compound 10 µM, first compound 0.0001 µM): 33%
viability, T/C [21]: 37.1%
viability, T/C [22]: 26.8%
viability, T/C [23]: 11.3%
viability, T/C [24]: 3.5%
viability, T/C [25]: 1.26%

CC(C)n1nc(-c2ccc3oc(N)nc3c2)c2c(N)ncnc21 + COc1cc2nc(C)nc(NC(C)c3cc(N)cc(C(F)(F)F)c3)c2cc1OC1CCOC1
IC50 (second compound 0.1 µM): 9.15 nM
IC50 (second compound 0.316 µM): 7.73 nM
IC50 (second compound 1 µM): 6.55 nM
IC50 (second compound 3.16 µM): 4.41 nM
IC50 (second compound 10 µM): 0.453 nM
viability, T/C [1]: 61.5%
viability, T/C [2]: 83.8%
viability, T/C [3]: 64.1%
viability, T/C [4]: 48.5%
viability, T/C [5]: 32.6%
viability, T/C [26]: 26%
viability, T/C [6]: 90.1%
viability, T/C [7]: 83.9%
viability, T/C [8]: 65.4%
viability, T/C [9]: 44.8%
viability, T/C [10]: 33.7%
viability, T/C [27]: 25.6%
viability, T/C [11]: 81%
viability, T/C [12]: 77.1%
viability, T/C [13]: 57.1%
viability, T/C [14]: 46.8%
viability, T/C [15]: 29.6%
viability, T/C [28]: 25.1%
viability, T/C [16]: 84.2%
viability, T/C [17]: 80.6%
viability, T/C [18]: 53.7%
viability, T/C [19]: 35.8%
viability, T/C [20]: 27.4%
viability, T/C [29]: 20.2%
viability, T/C [21]: 56.9%
viability, T/C [22]: 32.4%
viability, T/C [23]: 34.7%
viability, T/C [24]: 26.1%
viability, T/C [25]: 21.6%
viability, T/C [30]: 19%

CC1(C)CCC(CN2CCN(c3ccc(C(=O)NS(=O)(=O)c4ccc(NCC5CCOCC5)c([N+](=O)[O-])c4)c(Oc4cnc5[nH]ccc5c4)c3)CC2)=C(c2ccc(Cl)cc2)C1 + COc1cc2nc(C)nc(NC(C)c3cc(N)cc(C(F)(F)F)c3)c2cc1OC1CCOC1
IC50 (second compound 0.1 µM): 6340 nM
IC50 (second compound 0.316 µM): 5020 nM
IC50 (second compound 1 µM): 3650 nM
IC50 (second compound 3.16 µM): 2000 nM
IC50 (second compound 10 µM): 391 nM
viability, T/C [5]: 74.8%
viability, T/C [26]: 82.6%
viability, T/C [31]: 92.4%
viability, T/C [32]: 93.3%
viability, T/C [33]: 82.9%
viability, T/C [34]: 28.2%
viability, T/C [10]: 74.5%
viability, T/C [27]: 82.8%
viability, T/C [35]: 86%
viability, T/C [36]: 80.5%
viability, T/C [37]: 70.9%
viability, T/C [38]: 18.8%
viability, T/C [15]: 71.9%
viability, T/C [28]: 78.2%
viability, T/C [39]: 82.6%
viability, T/C [40]: 81.3%
viability, T/C [41]: 55.7%
viability, T/C [42]: 10.8%
viability, T/C [20]: 81%
viability, T/C [29]: 82.4%
viability, T/C [43]: 86.1%
viability, T/C [44]: 80%
viability, T/C [45]: 30.2%
viability, T/C [46]: 12.2%
viability, T/C [25]: 55.7%
viability, T/C [30]: 52.6%
viability, T/C [47]: 51.3%
viability, T/C [48]: 36.8%
viability, T/C [49]: 2.22%
viability, T/C [50]: 1.29%

COC(=O)c1ccc2c(C(=Nc3ccc(N(C)C(=O)CN4CCN(C)CC4)cc3)c3ccccc3)c(O)[nH]c2c1 + COc1cc2nc(C)nc(NC(C)c3cc(N)cc(C(F)(F)F)c3)c2cc1OC1CCOC1
IC50 (second compound 0.1 µM): 2010 nM
IC50 (second compound 0.316 µM): 2710 nM
IC50 (second compound 1 µM): 1840 nM
IC50 (second compound 3.16 µM): 1780 nM
IC50 (second compound 10 µM): < 31.6 nM
viability, T/C [5]: 113%
viability, T/C [26]: 118%
viability, T/C [31]: 118%
viability, T/C [32]: 138%
viability, T/C [33]: 3.03%
viability, T/C [34]: 0.16%
viability, T/C [10]: 96.5%
viability, T/C [27]: 105%
viability, T/C [35]: 100%
viability, T/C [36]: 102%
viability, T/C [37]: 42.1%
viability, T/C [38]: 0.17%
viability, T/C [15]: 96.8%
viability, T/C [28]: 90.3%
viability, T/C [39]: 108%
viability, T/C [40]: 102%
viability, T/C [41]: 6.39%
viability, T/C [42]: 0.16%
viability, T/C [20]: 111%
viability, T/C [29]: 94.7%
viability, T/C [43]: 112%
viability, T/C [44]: 99.6%
viability, T/C [45]: 0.72%
viability, T/C [46]: 0.58%
viability, T/C [25]: 17.9%
viability, T/C [30]: 15.5%
viability, T/C [47]: 2.96%
viability, T/C [48]: 0.51%
viability, T/C [49]: 0.17%
viability, T/C [50]: 0.22%

COc1cc(Nc2ncc3c(n2)-c2ccc(Cl)cc2C(c2c(F)cccc2OC)=NC3)ccc1C(=O)O + COc1cc2nc(C)nc(NC(C)c3cc(N)cc(C(F)(F)F)c3)c2cc1OC1CCOC1
IC50 (second compound 0.1 µM): < 31.6 nM
IC50 (second compound 0.316 µM): < 31.6 nM
IC50 (second compound 1 µM): < 31.6 nM
IC50 (second compound 3.16 µM): < 31.6 nM
IC50 (second compound 10 µM): < 31.6 nM
viability, T/C [5]: 40.5%
viability, T/C [26]: 35.1%
viability, T/C [31]: 41.5%
viability, T/C [32]: 37.5%
viability, T/C [33]: 37.2%
viability, T/C [34]: 33.2%
viability, T/C [10]: 45.3%
viability, T/C [27]: 38.4%
viability, T/C [35]: 40.7%
viability, T/C [36]: 36.7%
viability, T/C [37]: 37.3%
viability, T/C [38]: 34.6%
viability, T/C [15]: 46.9%
viability, T/C [28]: 35.4%
viability, T/C [39]: 39.4%
viability, T/C [40]: 40.5%
viability, T/C [41]: 33%
viability, T/C [42]: 34.2%
viability, T/C [20]: 38.5%
viability, T/C [29]: 32%
viability, T/C [43]: 32.5%
viability, T/C [44]: 33.7%
viability, T/C [45]: 30.1%
viability, T/C [46]: 31.6%
viability, T/C [25]: 11.7%
viability, T/C [30]: 2.43%
viability, T/C [47]: 2.29%
viability, T/C [48]: 2.71%
viability, T/C [49]: 10.7%
viability, T/C [50]: 2.59%

COc1cc2nccc(Oc3ccc(NC(=O)C4(C(=O)Nc5ccc(F)cc5)CC4)cc3)c2cc1OC + COc1cc2nc(C)nc(NC(C)c3cc(N)cc(C(F)(F)F)c3)c2cc1OC1CCOC1
IC50 (second compound 0.1 µM): 7430 nM
IC50 (second compound 0.316 µM): 7590 nM
IC50 (second compound 1 µM): 5580 nM
IC50 (second compound 3.16 µM): 3270 nM
IC50 (second compound 10 µM): 1470 nM
viability, T/C [5]: 93.7%
viability, T/C [26]: 99.6%
viability, T/C [31]: 88.6%
viability, T/C [32]: 95.1%
viability, T/C [33]: 85.6%
viability, T/C [34]: 37.4%
viability, T/C [10]: 99.7%
viability, T/C [27]: 98.1%
viability, T/C [35]: 88.6%
viability, T/C [36]: 88.9%
viability, T/C [37]: 83.6%
viability, T/C [38]: 39.5%
viability, T/C [15]: 89%
viability, T/C [28]: 96.1%
viability, T/C [39]: 96.6%
viability, T/C [40]: 90.1%
viability, T/C [41]: 72%
viability, T/C [42]: 27.5%
viability, T/C [20]: 100%
viability, T/C [29]: 96.8%
viability, T/C [43]: 101%
viability, T/C [44]: 105%
viability, T/C [45]: 51.2%
viability, T/C [46]: 6.41%
viability, T/C [25]: 93.4%
viability, T/C [30]: 73.2%
viability, T/C [47]: 67%
viability, T/C [48]: 74.8%
viability, T/C [49]: 0.78%
viability, T/C [50]: 0.24%
